According to the supplement of paper PMC10307832:

Tests used:
Assay in all cases: relative viability (nuclei count vs DMSO), 5 days (fraction); higher = more cells survive
Crizotinib + AZD7762 = compound: C[C@@H](Oc1cc(-c2cnn(C3CCNCC3)c2)cnc1N)c1c(Cl)ccc(F)c1Cl [Crizotinib] + NC(=O)Nc1cc(-c2cccc(F)c2)sc1C(=O)N[C@H]1CCCNC1 [AZD7762] (partner 0.2 µM)
How it was run: (§1)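 Lung cancer cell lines were seeded in 1536-well plates and dosed by pin tool the next day, with either a single drug or a fixed anchor-drug dose combined with five library-drug doses (not always all listed) spaced in √10 steps. Five days later, one step fixed the cells and stained their nuclei (final 0.05% Triton X-100, 1% formaldehyde, 1 ug/ml Hoechst), and nuclei were counted on 4× images. Relative viability is the nuclei count in treated wells divided by the count in vehicle wells, and each value is the median of duplicate plates.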

Crizotinib + Olaparib = compound: C[C@@H](Oc1cc(-c2cnn(C3CCNCC3)c2)cnc1N)c1c(Cl)ccc(F)c1Cl [Crizotinib] + O=C(c1cc(Cc2n[nH]c(=O)c3ccccc23)ccc1F)N1CCN(C(=O)C2CC2)CC1 [Olaparib] (partner 8 µM)
How it was run: as §1

Olaparib + Bortezomib = compound: O=C(c1cc(Cc2n[nH]c(=O)c3ccccc23)ccc1F)N1CCN(C(=O)C2CC2)CC1 [Olaparib] + CC(C)C[C@H](NC(=O)[C@H](Cc1ccccc1)NC(=O)c1cnccn1)B(O)O [Bortezomib] (partner 0.002 µM)
How it was run: as §1

Olaparib + Pemetrexed = compound: O=C(c1cc(Cc2n[nH]c(=O)c3ccccc23)ccc1F)N1CCN(C(=O)C2CC2)CC1 [Olaparib] + Nc1nc2[nH]cc(CCc3ccc(C(=O)N[C@@H](CCC(=O)O)C(=O)O)cc3)c2c(=O)[nH]1 [Pemetrexed] (partner 0.2 µM)
How it was run: as §1

Cell Line	relative viability (Crizotinib + AZD7762; first compound 0.01 µM)	relative viability (Crizotinib + AZD7762; first compound 0.03162 µM)	relative viability (Crizotinib + AZD7762; first compound 0.3162 µM)	relative viability (Crizotinib + AZD7762; first compound 1 µM)	relative viability (Crizotinib + Olaparib; first compound 0.01 µM)	relative viability (Crizotinib + Olaparib; first compound 0.03162 µM)	relative viability (Crizotinib + Olaparib; first compound 0.3162 µM)	relative viability (Crizotinib + Olaparib; first compound 1 µM)	relative viability (Olaparib + Bortezomib; first compound 0.08 µM)	relative viability (Olaparib + Bortezomib; first compound 0.253 µM)	relative viability (Olaparib + Bortezomib; first compound 2.53 µM)	relative viability (Olaparib + Bortezomib; first compound 8 µM)	relative viability (Olaparib + Pemetrexed; first compound 0.08 µM)	relative viability (Olaparib + Pemetrexed; first compound 0.253 µM)	relative viability (Olaparib + Pemetrexed; first compound 2.53 µM)	relative viability (Olaparib + Pemetrexed; first compound 8 µM)	relative viability (Crizotinib + AZD7762; first compound 0.1 µM)	relative viability (Crizotinib + Olaparib; first compound 0.1 µM)
NCI-H1993	0.702	0.75	0.379	0.527	0.919	0.948	0.924	0.9	1.06	1.16	1.06	1.18	0.622	0.658	0.627	0.556		
NCI-H2085	0.961	1.01	0.737	1.02	0.737	0.74	0.752	0.823	1.25	0.92	0.981	0.808	0.971	0.755	0.871	0.852	0.986	0.755
NCI-H2087	1.39	1.49	1.24	1.48	0.614	0.59	0.397	0.716	0.96	0.753	0.842	0.66	0.74	0.591	0.596	0.556	1.24	0.595
NCI-H2126	0.928	1.09	0.903	1.04	0.81	0.936	0.897	0.907	1.22	0.994	1.07	1.08	0.743	0.649	0.663	0.681	1.02	0.952
NCI-H2347	0.773	0.663	0.582	0.884	0.584	0.57	0.554	0.578	1.28	0.715	0.974	0.676	0.474	0.476	0.435	0.397	0.772	0.568
NCI-H2405	0.632	0.695	0.763	0.755	0.794	0.837	0.751	0.901	1.04	0.914	1.01	0.934	1.02	0.931	1.02	1.01	0.684	0.906
NCI-H3122	1.01	1.05	0.962	0.921	0.597	0.57	0.637	0.631	1.01	0.985	0.993	0.947	0.202	0.194	0.191	0.18	0.93	0.61
PC-3 [JPC-3]	0.687			0.772	1.09	1.22		1.12	0.991	0.692	0.852	0.846	1.1		1.26	1.05	0.907	1.13
PC-14	0.342	0.392	0.355	0.382	0.274	0.28	0.401	0.289	1.04	0.892	0.78	0.682	0.131	0.14	0.135	0.139	0.401	0.307
RERF-LC-KJ	1.02	0.956	0.946	0.994	0.843	0.887	0.919	0.802	1.19	1.14	1.03	1.06	0.527	0.477	0.481	0.449	0.956	0.928
